Experimental data reported in patent US20250026916A1, “ULTRAVIOLET ABSORBER AND USE THEREOF” (RIANLON (ZHONGWEI) NEW MATERIAL CO., LTD., priority 2023, published 2025).

Key:
[1] = Absorption spectrum in chloroform (UV-visible spectrophotometer); type: physicochemical; settings: chloroform solution 10 mg/L; for Peak area ratio in waveband 280-450 nm: total
Protocol: The absorption spectra were measured using an ultraviolet-visible spectrophotometer, and the instrument model is (UV-2600, Shimadzu corporation, Japan). The absorption spectra were compared in Table 1 below.

[2] = general description of the commercial product; cited from earlier work
[3] = Color test, Gardner color scale of DMF solution; type: physicochemical; settings: 2 g dissolved in 18 g DMF
Protocol: The completely dissolved solution was transferred to a cuvette, and the Gardner color scale value transmitted by the solvent was measured. The instrument was a Ci7600 bench spectrophotometer (X-rite, the United States).

[4] = Solubility/compatibility test in typical oligomer resins; settings: mass soluble in 100 g of oligomer, 20° C.
Protocol: Test method: The mass of soluble ultraviolet absorber in 100 g of oligomer when the ambient temperature is 20° C.

| Absorption cut-off wavelength [1] [nm] | Maximum absorption peak in red shift direction [1] [nm] | Peak area ratio in waveband 280-360 nm [1] [%] | Peak area ratio in waveband 361-380 nm [1] [%] | Peak area ratio in waveband 381-400 nm [1] [%] | Peak area ratio in waveband 401-450 nm [1] [%] | Peak area ratio in waveband 280-450 nm [1] [%] | Gardner color scale [3] | Solubility in cyclohexanedimethylene diisocyanate (H6XDI) [4] [g] | Solubility in hexamethylene diisocyanate (HDI) trimer [4] [g] | Solubility in tripropylene glycol diacrylate [4] [g] | SMILES | Wavelength to which absorption can be red-shifted [2] [nm] |
| --- | --- | --- | --- | --- | --- | --- | --- | --- | --- | --- | --- | --- |
| 410 | – | – | – | – | – | – | – | – | – | – | Cc1cc(-n2nc3ccc(Cl)cc3n2)c(O)c(C(C)(C)C)c1 [UV-326, 2′-(2′-hydroxy-3′-tert-butyl-5′-methylphenyl)-5-chlorobenzotriazole, reference compound] | – |
| 435 | 374 | 56.2 | 14.6 | 18.5 | 10.7 | 100 | 11.5 | – | – | – | CCCCN1C(=O)c2cc3nn(-c4cc(C(C)(C)CC(C)(C)C)cc(C(C)(C)c5ccccc5)c4O)nc3cc2C1=O [Carboprotect, reference compound] | 420 |
| 430 | 370 | 65.4 | 18.1 | 11.8 | 4.7 | 100.0 | 5.2 | 3 | 3.5 | 3.8 | CCCCCCCCCCCCS(=O)(=O)c1ccc2nn(-c3cc(C)cc(C(C)(C)C)c3O)nc2c1 [RSUV-2] | – |
| 416 | 369 | 58.1 | 26.5 | 13.6 | 1.8 | 100.0 | 3.0 | 4.2 | 4.6 | 3.9 | CCCCCCCCCCCCSc1ccc2nn(-c3cc(C)cc(C(C)(C)C)c3O)nc2c1 [RSUV-1] | – |
